According to the NIST ThermoML archive (doi:10.1007/s10765-013-1492-1):

Assay: xn = mol fraction of the nth substance listed
Conditions: 101 kPa, Liquid

Clc1ccccc1 [chlorobenzene] + O=Cc1ccccc1
x2 = 0
Conditions | mass density [kg/m3] | speed of sound [m/s] | viscosity [mPa·s]
303.15 K | 1086.6 | 1249 | 0.7147
308.15 K | 1085.1 | 1224 | 0.7469
313.15 K | 1081.1 | 1220 | 0.7383

O=Cc1ccccc1 [benzaldehyde] + O=[N+]([O-])c1ccccc1
Conditions | mass density, 303.15 K [kg/m3] | mass density, 308.15 K [kg/m3] | mass density, 313.15 K [kg/m3] | speed of sound, 303.15 K [m/s] | speed of sound, 308.15 K [m/s] | speed of sound, 313.15 K [m/s] | viscosity, 303.15 K [mPa·s] | viscosity, 308.15 K [mPa·s] | viscosity, 313.15 K [mPa·s]
x1 = 0.1018 | 1170.8 | 1170.6 | 1166.6 | 1409.5 | 1366.2 | 1332.4 | 1.556 | 1.546 | 1.524
x1 = 0.2032 | 1160.2 | 1159.9 | 1150.6 | 1412 | 1372 | 1340 | 1.534 | 1.504 | 1.472
x1 = 0.3043 | 1143 | 1142.6 | 1142.4 | 1414.6 | 1378 | 1348 | 1.495 | 1.456 | 1.45
x1 = 0.4049 | 1130.6 | 1129.8 | 1121.9 | 1417.5 | 1384 | 1356.2 | 1.455 | 1.429 | 1.402
x1 = 0.5051 | 1117.6 | 1117 | 1110.9 | 1420.6 | 1390.6 | 1364.8 | 1.427 | 1.411 | 1.383
x1 = 0.6049 | 1102.6 | 1101.8 | 1101.1 | 1424.5 | 1397.8 | 1374 | 1.405 | 1.389 | 1.371
x1 = 0.7042 | 1083.9 | 1082.7 | 1080.7 | 1428.3 | 1405 | 1383 | 1.359 | 1.354 | 1.343
x1 = 0.8032 | 1065.2 | 1065 | 1064.5 | 1432.5 | 1412.5 | 1392.3 | 1.333 | 1.316 | 1.307
x1 = 0.9018 | 1050.9 | 1048.8 | 1043.8 | 1437 | 1420 | 1401.7 | 1.295 | 1.282 | 1.267
x1 = 1 | 1035.7 | 1031.3 | 1028 | 1452 | 1428.8 | 1413 | 1.32 | 1.249 | 1.241
